Experimental data from ChEMBL document CHEMBL3877299, “Imidazopyridine-fused [1,3]-diazepinones part 2: Structure-activity relationships and antiproliferative activity against melanoma cells” (Eur J Med Chem, 2017).

Tests used:
[1] = Growth inhibition of human UACC62 cells assessed as cell growth at 10 uM incubated for 48 hrs by sulforhodamine B assay relative to control; format: functional; details: UACC-62, 48 h, read-out: Activity
[2] = Growth inhibition of human IGROV1 cells assessed as cell growth at 10 uM incubated for 48 hrs by sulforhodamine B assay relative to control; format: functional; details: IGROV-1, 48 h, read-out: Activity
[3] = Growth inhibition of human U251 cells assessed as cell growth at 10 uM incubated for 48 hrs by sulforhodamine B assay relative to control; format: functional; details: U-251, 48 h, read-out: Activity
[4] = Growth inhibition of human HCC2998 cells assessed as cell growth at 10 uM incubated for 48 hrs by sulforhodamine B assay relative to control; format: functional; details: HCC 2998, 48 h, read-out: Activity
[5] = Growth inhibition of human UACC257 cells assessed as cell growth at 10 uM incubated for 48 hrs by sulforhodamine B assay relative to control; format: functional; details: UACC-257, 48 h, read-out: Activity
[6] = Growth inhibition of human BT549 cells assessed as cell growth at 10 uM incubated for 48 hrs by sulforhodamine B assay relative to control; format: functional; details: BT-549, 48 h, read-out: Activity
[7] = Growth inhibition of human SF539 cells assessed as cell growth at 10 uM incubated for 48 hrs by sulforhodamine B assay relative to control; format: functional; details: SF-539, 48 h, read-out: Activity
[8] = Growth inhibition of human HT-29 cells assessed as cell growth at 10 uM incubated for 48 hrs by sulforhodamine B assay relative to control; format: functional; details: HT-29, 48 h, read-out: Activity
[9] = Growth inhibition of human COLO205 cells assessed as cell growth at 10 uM incubated for 48 hrs by sulforhodamine B assay relative to control; format: functional; details: COLO 205, 48 h, read-out: Activity
[10] = Growth inhibition of human EKVX cells assessed as cell growth at 10 uM incubated for 48 hrs by sulforhodamine B assay relative to control; format: functional; details: read-out: Activity
[11] = Growth inhibition of human A549/ATCC cells assessed as cell growth at 10 uM incubated for 48 hrs by sulforhodamine B assay relative to control; format: functional; details: A549, 48 h, read-out: Activity
[12] = Growth inhibition of human 786-0 cells assessed as cell growth at 10 uM incubated for 48 hrs by sulforhodamine B assay relative to control; format: functional; details: 786-0, 48 h, read-out: Activity
[13] = Growth inhibition of human Caki1 cells assessed as cell growth at 10 uM incubated for 48 hrs by sulforhodamine B assay relative to control; format: functional; details: CAKI-1, 48 h, read-out: Activity
[14] = Growth inhibition of human MCF7 cells assessed as cell growth at 10 uM incubated for 48 hrs by sulforhodamine B assay relative to control; format: functional; details: MCF7, 48 h, read-out: Activity
[15] = Growth inhibition of human MALME-3M cells assessed as cell growth at 10 uM incubated for 48 hrs by sulforhodamine B assay relative to control; format: functional; details: read-out: Activity
[16] = target: Mitogen-activated protein kinase kinase kinase kinase 4 (Homo sapiens, UniProt O95819); experiment: Inhibition of recombinant human HGK using Ulight-FLGFTYVAP as substrate after 90 mins by LANCE assay
[17] = Growth inhibition of human OVCAR5 cells assessed as cell growth at 10 uM incubated for 48 hrs by sulforhodamine B assay relative to control; format: functional; details: OVCAR-5, 48 h, read-out: Activity
[18] = Growth inhibition of human CCRF-CEM cells assessed as cell growth at 10 uM incubated for 48 hrs by sulforhodamine B assay relative to control; format: functional; details: read-out: Activity
[19] = Growth inhibition of human NCI-H322M cells assessed as cell growth at 10 uM incubated for 48 hrs by sulforhodamine B assay relative to control; format: functional; details: read-out: Activity
[20] = Growth inhibition of human HCT116 cells assessed as cell growth at 10 uM incubated for 48 hrs by sulforhodamine B assay relative to control; format: functional; details: HCT-116, 48 h, read-out: Activity
[21] = Growth inhibition of human SF295 cells assessed as cell growth at 10 uM incubated for 48 hrs by sulforhodamine B assay relative to control; format: functional; details: SF-295, 48 h, read-out: Activity
[22] = Growth inhibition of human SK-MEL-28 cells assessed as cell growth at 10 uM incubated for 48 hrs by sulforhodamine B assay relative to control; format: functional; details: SK-MEL-28, 48 h, read-out: Activity
[23] = Growth inhibition of human OVCAR3 cells assessed as cell growth at 10 uM incubated for 48 hrs by sulforhodamine B assay relative to control; format: functional; details: OVCAR-3, 48 h, read-out: Activity
[24] = Growth inhibition of human NCI/ADR-RES cells assessed as cell growth at 10 uM incubated for 48 hrs by sulforhodamine B assay relative to control; format: functional; details: read-out: Activity
[25] = Growth inhibition of human LOXIMVI cells assessed as cell growth at 10 uM incubated for 48 hrs by sulforhodamine B assay relative to control; format: functional; details: LOX IMVI, read-out: Activity
[26] = Growth inhibition of human NCI-H460 cells assessed as cell growth at 10 uM incubated for 48 hrs by sulforhodamine B assay relative to control; format: functional; details: NCI-H460, 48 h, read-out: Activity
[27] = Growth inhibition of human HOP92 cells assessed as cell growth at 10 uM incubated for 48 hrs by sulforhodamine B assay relative to control; format: functional; details: HOP-92, 48 h, read-out: Activity

Mitogen-activated protein kinase kinase kinase kinase 4, sequence (O95819 whole entry): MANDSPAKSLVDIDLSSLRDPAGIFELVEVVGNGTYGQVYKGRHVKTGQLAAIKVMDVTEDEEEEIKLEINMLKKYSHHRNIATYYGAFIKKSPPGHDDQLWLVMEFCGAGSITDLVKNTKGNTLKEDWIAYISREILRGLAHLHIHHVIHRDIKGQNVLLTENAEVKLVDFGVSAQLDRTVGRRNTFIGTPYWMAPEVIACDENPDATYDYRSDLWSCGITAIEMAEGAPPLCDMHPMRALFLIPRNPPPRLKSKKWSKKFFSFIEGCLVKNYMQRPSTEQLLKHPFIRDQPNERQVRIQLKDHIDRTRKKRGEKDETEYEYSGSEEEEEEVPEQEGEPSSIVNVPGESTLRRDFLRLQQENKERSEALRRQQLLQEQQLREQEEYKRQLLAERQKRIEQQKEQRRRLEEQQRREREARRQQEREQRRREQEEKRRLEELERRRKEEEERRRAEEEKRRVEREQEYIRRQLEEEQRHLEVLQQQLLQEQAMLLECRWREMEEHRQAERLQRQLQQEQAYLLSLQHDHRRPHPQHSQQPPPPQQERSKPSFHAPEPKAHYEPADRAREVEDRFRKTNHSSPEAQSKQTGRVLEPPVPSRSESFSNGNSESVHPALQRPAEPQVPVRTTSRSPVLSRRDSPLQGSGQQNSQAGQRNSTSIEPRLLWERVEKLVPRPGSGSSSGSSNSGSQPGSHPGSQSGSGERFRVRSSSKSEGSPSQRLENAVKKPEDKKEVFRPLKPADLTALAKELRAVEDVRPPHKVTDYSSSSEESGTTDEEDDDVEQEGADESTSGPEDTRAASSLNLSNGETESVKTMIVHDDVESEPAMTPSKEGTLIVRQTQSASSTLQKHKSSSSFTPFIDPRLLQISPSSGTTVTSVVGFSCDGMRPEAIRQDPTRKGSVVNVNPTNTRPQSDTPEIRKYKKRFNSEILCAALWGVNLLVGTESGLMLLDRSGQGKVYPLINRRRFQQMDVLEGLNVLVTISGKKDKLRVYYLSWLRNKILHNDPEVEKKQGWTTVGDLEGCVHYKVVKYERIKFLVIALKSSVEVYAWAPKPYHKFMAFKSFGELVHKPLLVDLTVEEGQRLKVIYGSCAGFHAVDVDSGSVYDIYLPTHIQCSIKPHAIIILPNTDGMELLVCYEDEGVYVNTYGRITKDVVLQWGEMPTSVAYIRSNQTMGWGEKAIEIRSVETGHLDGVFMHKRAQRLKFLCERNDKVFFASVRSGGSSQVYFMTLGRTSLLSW

## CC(C)(C)OC[C@@H]1NC(c2ccc(Br)cc2)=Nc2nc3ccccn3c2C1=O
[1]
  growth at 10 µM: 53.6%
[2]
  growth at 10 µM: 40.8%
[3]
  growth at 10 µM: 63.5%
[4]
  growth at 10 µM: 90.9%
[5]
  growth at 10 µM: 62.3%
[6]
  growth at 10 µM: 72.5%
[7]
  growth at 10 µM: 75.8%
[8]
  growth at 10 µM: 21.8%
[9]
  growth at 10 µM: 62.6%
[10]
  growth at 10 µM: 81.6%
[11]
  growth at 10 µM: 51.6%
[12]
  growth at 10 µM: 94.2%
[13]
  growth at 10 µM: 64.2%
[14]
  growth at 10 µM: 27.8%
[15]
  growth at 10 µM: 51.5%
[16]
  IC50: 5.6 µM
[17]
  growth at 10 µM: 105%
[18]
  growth at 10 µM: 67.8%
[19]
  growth at 10 µM: 84.8%
[20]
  growth at 10 µM: 43.7%
[21]
  growth at 10 µM: 30.9%
[22]
  growth at 10 µM: 68.6%
[23]
  growth at 10 µM: 34.2%
[24]
  growth at 10 µM: 39.7%
[25]
  growth at 10 µM: 58.7%
[26]
  growth at 10 µM: 41.3%

## C[C@@H]1NC(c2ccc(Cl)cc2)=Nc2nc3ccccn3c2C1=O
[1]
  growth at 10 µM: 78.6%
[2]
  growth at 10 µM: 50.7%
[3]
  growth at 10 µM: 92.5%
[4]
  growth at 10 µM: 91.6%
[5]
  growth at 10 µM: 80.7%
[6]
  growth at 10 µM: 93.6%
[7]
  growth at 10 µM: 84.7%
[8]
  growth at 10 µM: 85.4%
[9]
  growth at 10 µM: 91.8%
[10]
  growth at 10 µM: 92.4%
[11]
  growth at 10 µM: 85.8%
[12]
  growth at 10 µM: 108%
[13]
  growth at 10 µM: 84.6%
[14]
  growth at 10 µM: 69.2%
[15]
  growth at 10 µM: 76.2%
[17]
  growth at 10 µM: 109%
[18]
  growth at 10 µM: 90.8%
[19]
  growth at 10 µM: 87%
[20]
  growth at 10 µM: 97%
[21]
  growth at 10 µM: 92.4%
[22]
  growth at 10 µM: 92.8%
[23]
  growth at 10 µM: 84.3%
[24]
  growth at 10 µM: 85.6%
[25]
  growth at 10 µM: 88.2%
[26]
  growth at 10 µM: 96.1%

## C[C@@H]1NC(c2ccc(Cl)cc2Cl)=Nc2nc3ccccn3c2C1=O
[1]
  growth at 10 µM: 40.5%
[2]
  growth at 10 µM: 41.9%
[3]
  growth at 10 µM: 41.4%
[4]
  growth at 10 µM: 75.4%
[5]
  growth at 10 µM: 52.4%
[6]
  growth at 10 µM: 55.6%
[7]
  growth at 10 µM: 53%
[8]
  growth at 10 µM: 7.68%
[9]
  growth at 10 µM: 22.3%
[10]
  growth at 10 µM: 82.5%
[11]
  growth at 10 µM: 40.6%
[12]
  growth at 10 µM: 73.2%
[13]
  growth at 10 µM: 47.2%
[14]
  growth at 10 µM: 16.8%
[15]
  growth at 10 µM: 43.7%
[16]
  IC50: > 100 µM
[27]
  growth at 10 µM: 55.9%
[17]
  growth at 10 µM: 91.2%
[18]
  growth at 10 µM: 56.6%
[19]
  growth at 10 µM: 63.6%
[20]
  growth at 10 µM: 28.1%
[21]
  growth at 10 µM: 14.5%
[22]
  growth at 10 µM: 60.7%
[23]
  growth at 10 µM: 2.44%
[24]
  growth at 10 µM: 44.5%
[25]
  growth at 10 µM: 51.3%
[26]
  growth at 10 µM: 18.7%

## C[C@@H]1NC(c2ccc3ccccc3c2)=Nc2nc3ccccn3c2C1=O
[1]
  growth at 10 µM: 48.8%
[2]
  growth at 10 µM: 32.1%
[3]
  growth at 10 µM: 32.5%
[4]
  growth at 10 µM: 77%
[5]
  growth at 10 µM: 40.9%
[6]
  growth at 10 µM: 35.1%
[7]
  growth at 10 µM: 37.2%
[8]
  growth at 10 µM: 5.93%
[9]
  growth at 10 µM: 22.8%
[10]
  growth at 10 µM: 75.6%
[11]
  growth at 10 µM: 39.5%
[12]
  growth at 10 µM: 69.3%
[13]
  growth at 10 µM: 38.5%
[14]
  growth at 10 µM: 25.2%
[15]
  growth at 10 µM: 42.3%
[17]
  growth at 10 µM: 90.6%
[18]
  growth at 10 µM: 52.9%
[19]
  growth at 10 µM: 73.2%
[20]
  growth at 10 µM: 18.3%
[21]
  growth at 10 µM: 14.9%
[22]
  growth at 10 µM: 59.9%
[23]
  growth at 10 µM: 16.9%
[24]
  growth at 10 µM: 44.5%
[25]
  growth at 10 µM: 48.5%
[26]
  growth at 10 µM: 15.2%
